8 molecules from ChEMBL document CHEMBL1201862, “PubChem BioAssay data set” (2004) can be followed below.

SMILES strings stand for the structures.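 A five-concentration, 48-hour dose response in 96-well plates underlies each endpoint, interpolated linearly between surrounding concentrations. GI50 = concentration required for 50% inhibition of growth.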 Active and inactive are the calls of the source. No stated cut-off is given here; in the data, active = GI50 up to about 1.1 µM and inactive = higher.

Test systems include OVCAR-5; U-251; NCI-H23; NCI-H226; MDA-MB-435; MCF7; SK-OV-3; SW-620; A549; CCRF-CEM; UACC-257; MDA-N; HCC 2998; HT-29; BT-549; SNB-19; COLO 205; NCI-H460; TK-10.
Holding throughout (test): DTP human tumour cell line panel, 48 h

Take `Cc1c(-c2ccccc2)c(-c2ccc(OCCN(C)C)cc2)n2ccccc12`: the GI50 was 15 µM (inactive) with OVCAR-5; 7.76 µM (inactive) with U-251; 16.6 µM (inactive) in the test with NCI-H23; 15.2 µM (inactive) in the test with NCI-H226; 3.79 µM (inactive) in the test on MDA-MB-435; 7.62 µM (inactive) in the test on MCF7. For the same molecule, the GI50 with SK-OV-3 was 15.8 µM (inactive); in the test with SW-620, 5.5 µM (inactive); in the test with A549 it was 13.9 µM (inactive); in the test with CCRF-CEM it was 3.72 µM (inactive); with UACC-257, 2.04 µM (inactive); in the test with MDA-N, 4.37 µM (inactive). Further, the GI50 was 1.69 µM (inactive) in the test on HCC 2998; 1.82 µM (inactive) in the test with HT-29; 5.65 µM (inactive) with BT-549; 12 µM (inactive) in the test with SNB-19; 1.64 µM (inactive) in the test on COLO 205; 2.51 µM (inactive) with NCI-H460. Further, the GI50 in the test with TK-10 was 13.2 µM (inactive).

Regarding `CCCCCCCCCCCCCCCCOCC(CCl)OP(=O)(O)OP(=O)(O)OCC1OC(n2ccc(N)nc2=O)C(O)C1O` (stereo unspecified), the GI50 in the test on OVCAR-5, in the test on U-251, with NCI-H23, with NCI-H226, in the test with MDA-MB-435 and in the test on MCF7 was > 100 µM (inactive) each time. Further, the GI50 with SK-OV-3, in the test with SW-620, in the test with A549, in the test with CCRF-CEM, in the test on UACC-257 and in the test with MDA-N was > 100 µM (inactive) each time. The GI50 in the test on HCC 2998, in the test with HT-29, in the test with BT-549, in the test with SNB-19, with COLO 205 and in the test with NCI-H460 was > 100 µM (inactive) throughout. For the same molecule, the GI50 in the test with TK-10 is > 100 µM (inactive).

In the case of `C=C1c2nc3ccccc3n2C=C(c2ccc(Cl)cc2)N1c1ccccc1`, the GI50 was 26.5 µM (inactive) in the test with OVCAR-5; 18.7 µM (inactive) in the test on U-251; 11.7 µM (inactive) in the test on NCI-H23; 0.031 µM (active) in the test on NCI-H226; 21 µM (inactive) in the test on MDA-MB-435; 13 µM (inactive) with MCF7. Also, the GI50 is 16.9 µM (inactive) in the test with SK-OV-3; 25.3 µM (inactive) with SW-620; 14.1 µM (inactive) in the test on A549; > 100 µM (inactive) in the test on CCRF-CEM; 18.7 µM (inactive) in the test with UACC-257; 33.1 µM (inactive) with MDA-N. Moreover, the GI50 was 13.3 µM (inactive) with HCC 2998; 6.64 µM (inactive) in the test on BT-549; 6.56 µM (inactive) with SNB-19; 29.6 µM (inactive) with COLO 205; 12.4 µM (inactive) in the test with NCI-H460; 12.4 µM (inactive) in the test with TK-10.

Regarding `C=CCNC(=O)NC(=O)CSC1=NC(=O)C2(NN1)c1ccccc1-c1ccccc12`, the GI50 with OVCAR-5, in the test on NCI-H23, in the test with NCI-H226, in the test with MDA-MB-435, in the test on MCF7 and in the test on SK-OV-3 was > 10 µM (inactive) each time. Besides, the GI50 in the test with SW-620, in the test with A549, in the test on CCRF-CEM, in the test with UACC-257, with MDA-N and in the test on HCC 2998 was > 10 µM (inactive) each time. Besides, the GI50 in the test on HT-29, in the test with BT-549, with SNB-19, with COLO 205, in the test with NCI-H460 and with TK-10 was > 10 µM (inactive) each time.

Turning to `N=c1oc2ccccc2cc1-c1nc2ccccc2c(=O)[nH]1`, the GI50 in the test on OVCAR-5 was > 100 µM (inactive); with U-251, 32 µM (inactive); in the test with NCI-H226, 29.7 µM (inactive); in the test on MDA-MB-435, > 100 µM (inactive); in the test on MCF7, 19.5 µM (inactive); in the test with SK-OV-3, > 100 µM (inactive). The GI50 was 72.3 µM (inactive) in the test on SW-620; 78.3 µM (inactive) with A549; 79.4 µM (inactive) in the test on CCRF-CEM; > 100 µM (inactive) with UACC-257; > 100 µM (inactive) with MDA-N; 90.2 µM (inactive) with HCC 2998. For the same molecule, the GI50 in the test on HT-29 was 39.1 µM (inactive); in the test on BT-549 it was 23.8 µM (inactive); with SNB-19, 30.1 µM (inactive); in the test on COLO 205, > 100 µM (inactive); in the test on NCI-H460, 64.7 µM (inactive); with TK-10, 35.3 µM (inactive).

Consider `Cc1c2ccccc2c(C)n2c1nc1ccccc12`, for which the GI50 is 16 µM (inactive) in the test with OVCAR-5; 5.6 µM (inactive) in the test on U-251; 6.93 µM (inactive) in the test on NCI-H23; 11.6 µM (inactive) in the test on NCI-H226; 6.1 µM (inactive) in the test on MDA-MB-435; 2.24 µM (inactive) in the test with MCF7. For the same molecule, the GI50 is 5.96 µM (inactive) in the test with SK-OV-3; 3.73 µM (inactive) in the test with SW-620; 4.37 µM (inactive) in the test with A549; 5.06 µM (inactive) in the test on CCRF-CEM; 14.2 µM (inactive) in the test on UACC-257; 10.6 µM (inactive) in the test with MDA-N. Moreover, the GI50 is 5.43 µM (inactive) in the test with HCC 2998; 5.11 µM (inactive) with HT-29; 15.1 µM (inactive) in the test with BT-549; 9.71 µM (inactive) in the test on SNB-19; 4.1 µM (inactive) in the test with NCI-H460; 13.4 µM (inactive) in the test on TK-10.

`Cn1cc(S(=O)(=O)NC(=O)Nc2ccc(Cl)cc2)c(=O)c2ccc(Cl)cc21`: the GI50 in the test on OVCAR-5 is > 100 µM (inactive); in the test with U-251, 93.1 µM (inactive); in the test on NCI-H23, 70 µM (inactive); with NCI-H226, 75 µM (inactive); with MDA-MB-435, 48.5 µM (inactive); in the test with MCF7 it was > 100 µM (inactive). In addition, the GI50 in the test with SK-OV-3 is > 100 µM (inactive); in the test on SW-620, > 100 µM (inactive); in the test on A549, > 100 µM (inactive); with CCRF-CEM, 92.9 µM (inactive); in the test with UACC-257 it was > 100 µM (inactive); with MDA-N it was > 100 µM (inactive). The GI50 in the test on HCC 2998 is 85.3 µM (inactive); in the test on HT-29, > 100 µM (inactive); with BT-549, 43.8 µM (inactive); in the test with SNB-19, 87.9 µM (inactive); in the test with NCI-H460, > 100 µM (inactive); with TK-10 it was > 100 µM (inactive).

Take `O=C1CC(=O)NC(NN2C(=O)/C(=C/c3ccc(Cl)cc3)N=C2c2ccccc2)=N1`: the GI50 is 15.1 µM (inactive) in the test with OVCAR-5; 15.6 µM (inactive) in the test with U-251; 16 µM (inactive) in the test with NCI-H23; 16.9 µM (inactive) in the test with NCI-H226; 15.2 µM (inactive) in the test on MDA-MB-435; 21.2 µM (inactive) in the test with MCF7. Besides, the GI50 in the test with SK-OV-3 was 23 µM (inactive); in the test on SW-620 it was 17.4 µM (inactive); in the test with A549 it was 14.6 µM (inactive); in the test on CCRF-CEM, 6.4 µM (inactive); with UACC-257, 17.8 µM (inactive); in the test with MDA-N it was 15.8 µM (inactive). For the same molecule, the GI50 in the test with HCC 2998 was 11.7 µM (inactive); with HT-29, 16.4 µM (inactive); in the test on BT-549, 15.8 µM (inactive); with COLO 205 it was 16.8 µM (inactive); in the test with NCI-H460, 9.53 µM (inactive); in the test with TK-10 it was 16.5 µM (inactive).
